Results as given in patent US9260382B2, “Methods of reducing virulence in bacteria” (priority 2010, dated 2016).

Test system: hrpA promoter (T3SS)
Experiment: hrpA promoter-probe phrpA in Erwinia amylovora 273, flow cytometry
Assay type: cell-based
Details: Ea273 (phrpA), HIM + 100 μM compound
Protocol: Wild-type Erwinia amylovora 273 was used in this study. The promoter-probe plasmid phrpA was constructed as follows. The hrpA promoter region of Erwinia amylovora 273 was amplified and cloned into pPROBE-NT to produce PhrpA. Plasmid PhrpA was electroporated into Erwinia amylovora 273. Expression of hrpA was analyzed using a FACS Calibur flow cytometer (BD Biosciences, CA). Wild-type Erwinia amylovora 273 containing phrpA was cultured in a hrp-inducing medium (HIM) containing dimethyl sulfoxide (DMSO; solvent of chemical compounds), or HIM supplemented with 100 μM of each compound, and promoter activity was assessed at 6 h and 9 h by measuring GFP intensity using flow cytometry (Table 19).

| SMILES | Avg MFI ± SD, hrpA expression (6 h) | Avg MFI ± SD, hrpA expression (9 h) |
| --- | --- | --- |
| O=Cc1ccc(/C=C/C(=O)NO)cc1 [Compound 146, trans-4-Formylcinnamohydroxamic acid] | 414.3 ± 31.6 | 435.2 ± 36.2 |
| O=C(/C=C/c1ccco1)NO [Compound 163, trans-3-(2-Furyl)acrylhydroxamic acid] | 231.5 ± 7.0 | 196.5 ± 14.9 |
| CN(C(=O)c1ccc(/C=C/C(=O)O)cc1)c1ccccc1 [Compound 167, trans-4-(Carbo-N-methyl-phenylamide)cinnamic acid] | 729.7 ± 67.5 | 707.3 ± 55.9 |
| COc1ccccc1/C=C/C(=O)NO [Compound 159, trans-2-Methoxycinnamohydroxamic acid] | 256.3 ± 10.8 | 337.3 ± 15.2 |
| COc1ccccc1/C=C/C(=O)O [Compound 015, trans-2-Methoxycinnamic acid] | 342.6 ± 7.0 | 255.1 ± 1.7 |
| O=C(/C=C/c1ccccc1O)NO [Compound 129, trans-2-Hydroxycinnamohydroxamic acid] | 187.9 ± 1.2 | 181.0 ± 0.7 |
| O=C(O)/C=C/c1ccccc1Cl [Compound 021, trans-2-Chlorocinnamic acid] | 225.7 ± 35.8 | 192.7 ± 8.6 |
| O=C(O)/C=C/c1ccccc1C(=O)O [Compound 024, trans-2-Carboxycinnamic acid] | 361.1 ± 76.1 | 332.2 ± 19.6 |
| NC(=O)/C=C/c1ccccc1 [Compound 031, trans-Cinnamamide] | 98.0 ± 18.4 | 88.1 ± 4.6 |
| COc1cccc(/C=C/C(=O)O)c1 [Compound 016, trans-3-Methoxycinnamic acid] | 265.3 ± 24.4 | 198.5 ± 20.0 |
| COC(=O)/C=C/c1ccccc1 [Compound 030, Methyl trans-cinnamate] | 674.8 ± 252.1 | 668.5 ± 31.2 |
| Cc1ccccc1/C=C/C(=O)NO [Compound 160, trans-2-Methylcinnamohydroxamic acid] | 122.7 ± 1.9 | 95.7 ± 3.7 |
| O=C(O)c1ccc(O)cc1 [Compound 144, 4-Hydroxybenzoic acid] | 434.4 ± 22.1 | 424.7 ± 24.8 |
| O=C(O)CCc1ccc(O)cc1 [Compound 007, 3-(4-Hydroxyphenyl)propionic acid] | 1093.1 ± 62.8 | 1211.0 ± 58.7 |
| O=C(CCc1ccccc1)NO [Compound 139, 3-Phenylpropionohydroxamic acid] | 306.3 ± 11.9 | 286.3 ± 10.0 |
| O=C(O)/C=C/c1ccc(C(=O)Cc2ccccc2)cc1 [Compound 164, trans-4-(Benzylcarbonyl)cinnamic acid] | 155.7 ± 22.2 | 116.4 ± 6.7 |
| O=C(O)/C=C/c1ccc(S)cc1 [Compound 026, trans-4-Mercaptocinnamic acid] | 159.7 ± 22.0 | 44.7 ± 2.7 |
| O=C(O)/C=C/c1cccs1 [Compound 011, trans-3-(2-Thienyl)acrylic acid] | 230.1 ± 5.8 | 167.3 ± 8.2 |
| O=C(NO)c1ccccc1O [Compound 135, Salicylhydroxamic acid] | 124.7 ± 7.7 | 147.8 ± 4.3 |
| O=C(/C=C/c1ccc(CO)cc1)NO [Compound 147, trans-4-Hydroxymethylcinnamohydroxamic acid] | 688.6 ± 39.2 | 746.8 ± 96.3 |
| O=C(/C=C/c1ccc(Cl)cc1)NO [Compound 148, trans-4-Chlorocinnamohydroxamic acid] | 22.5 ± 3.7 | 21.8 ± 25.2 |
| O=C(O)/C=C/c1ccc2ccccc2c1 [Compound 035, 3-(2-naphthyl) acrylic acid] | 178.9 ± 9.7 | 89.0 ± 6.2 |
